# Values quoted from earlier work, collected in PubChem BioAssay AID1259409 (Chemical Carcinogenesis Research Information System (CCRIS), 2018).
# Test system: rodent chemically induced tumor inhibition, incidence and multiplicity
# Assay: CCRIS tumor inhibitor studies
smiles,measurement,setting,value
Oc1ccccc1O,"tumour outcome (control, treated, inhibition, significance)","Carcinogen: 3,2'-DIMETHYL-4-AMINOBIPHENYL, 13394-86-0, Dose [Inhibitor]: 0, 0.8% IN BASAL DIET BEGINNING POST CARCINOGEN TREATMENT AND CONTINUING FOR 40 (STUDY DURATION: 60 WK), Route [Inhibitor]: ORAL, Species: RAT, Strain/Sex: F344/MALE, Target Tissue: Type of Lesion: SUBCUTIS: TUMOR, Dose [Carcinogen]: 50 MG/KG 1/2 WK FOR 20 WK TO RATS MAINTAINED ON ETHINYL ESTRADIOL CONTAINING DIET (0.75 PPM) FOR 1 WK CYCLED WITH ETHINY, Promoter: ETHINYL ESTRADIOL, 57-63-6","1/10 (10%), 1/11 (9%), 10%, not significant"
same,"tumour outcome (control, treated, inhibition, significance)","Carcinogen: 3,2'-DIMETHYL-4-AMINOBIPHENYL, 13394-86-0, Dose [Inhibitor]: 0, 0.8% IN BASAL DIET BEGINNING POST CARCINOGEN TREATMENT AND CONTINUING FOR 40 WK (STUDY DURATION: 60 WK), Route [Inhibitor]: ORAL, Species: RAT, Strain/Sex: F344/MALE, Target Tissue: Type of Lesion: LARGE INTESTINE: ADENOMA AND ADENOCARCINOMA, Dose [Carcinogen]: 50 MG/KG 1/2 WK FOR 20 WK TO RATS MAINTAINED ON ETHINYL ESTRADIOL CONTAINING DIET (0.75 PPM) FOR 1 WK CYCLED WITH ETHINY, Promoter: ETHINYL ESTRADIOL, 57-63-6","3/10 (30%), 5/11 (45%), -50%, not significant"
same,"tumour outcome (control, treated, inhibition, significance)","Carcinogen: 3,2'-DIMETHYL-4-AMINOBIPHENYL, 13394-86-0, Dose [Inhibitor]: 0, 0.8% IN BASAL DIET BEGINNING POST CARCINOGEN TREATMENT AND CONTINUING FOR 40 WK (STUDY DURATION: 60 WK), Route [Inhibitor]: ORAL, Species: RAT, Strain/Sex: F344/MALE, Target Tissue: Type of Lesion: PANCREAS: ACINAR CELL NODULE, Dose [Carcinogen]: 50 MG/KG 1/2 WK FOR 20 WK TO RATS MAINTAINED ON ETHINYL ESTRADIOL CONTAINING DIET (0.75 PPM) FOR 1 WK CYCLED WITH ETHINY, Promoter: ETHINYL ESTRADIOL, 57-63-6","4/10 (40%), 4/11 (36%), 10%, not significant"
same,"tumour outcome (control, treated, inhibition, significance)","Carcinogen: 3,2'-DIMETHYL-4-AMINOBIPHENYL, 13394-86-0, Dose [Inhibitor]: 0, 0.8% IN BASAL DIET BEGINNING POST CARCINOGEN TREATMENT AND CONTINUING FOR 40 WK (STUDY DURATION: 60 WK), Route [Inhibitor]: ORAL, Species: RAT, Strain/Sex: F344/MALE, Target Tissue: Type of Lesion: PREPUTIAL GLAND: ADENOMA AND CARCINOMA, Dose [Carcinogen]: 50 MG/KG 1/2 WK FOR 20 WK TO RATS MAINTAINED ON ETHINYL ESTRADIOL CONTAINING DIET (0.75 PPM) FOR 1 WK CYCLED WITH ETHINY, Promoter: ETHINYL ESTRADIOL, 57-63-6","5/10 (50%), 4/11 (36%), 28%, not significant"
same,"tumour outcome (control, treated, inhibition, significance)","Carcinogen: 3,2'-DIMETHYL-4-AMINOBIPHENYL, 13394-86-0, Dose [Inhibitor]: 0, 0.8% IN BASAL DIET BEGINNING POST CARCINOGEN TREATMENT AND CONTINUING FOR 40 WK (STUDY DURATION: 60 WK), Route [Inhibitor]: ORAL, Species: RAT, Strain/Sex: F344/MALE, Target Tissue: Type of Lesion: PROSTATE: CARCINOMA, Dose [Carcinogen]: 50 MG/KG 1/2 WK FOR 20 WK TO RATS MAINTAINED ON ETHINYL ESTRADIOL CONTAINING DIET (0.75 PPM) FOR 1 WK CYCLED WITH ETHINY, Promoter: ETHINYL ESTRADOL, 57-63-6","5/10 (50%), 3/11 (27%), 46%, not significant"
same,"tumour outcome (control, treated, inhibition, significance)","Carcinogen: 3,2'-DIMETHYL-4-AMINOBIPHENYL, 13394-86-0, Dose [Inhibitor]: 0, 0.8% IN BASAL DIET BEGINNING POST CARCINOGEN TREATMENT AND CONTINUING FOR 40 WK (STUDY DURATION: 60 WK), Route [Inhibitor]: ORAL, Species: RAT, Strain/Sex: F344/MALE, Target Tissue: Type of Lesion: SMALL INTESTINE: ADENOMA AND ADENOCARCINOMA, Dose [Carcinogen]: 50 MG/KG 1/2 WK FOR 20 WK TO RATS MAINTAINED ON ETHINYL ESTRADIOL CONTAINING DIET (0.75 PPM) FOR 1 WK CYCLED WITH ETHINY, Promoter: ETHINYL ESTRADIOL, 57-63-6","2/10 (20%), 1/11 (9%), 55%, not significant"
same,"tumour outcome (control, treated, inhibition, significance)","Carcinogen: 3,2-DIMETHYL-4-AMINOBIPHENYL, 13394-86-0, Dose [Inhibitor]: 0, 0.8% IN BASAL DIET BEGINNING POST CARCINOGEN TREATMENT AND CONTINUING FOR 40 WK (STUDY DURATION: 60 WK), Route [Inhibitor]: ORAL, Species: RAT, Strain/Sex: F344/MALE, Target Tissue: Type of Lesion: ZYMBAL GLAND: ADENOMA AND CARCINOMA, Dose [Carcinogen]: 50 MG/KG 1/2 WK FOR 20 WK TO RATS MAINTAINED ON ETHINYL ESTRADIOL CONTAINING DIET (0.75 PPM) FOR 1 WK CYCLED WITH ETHINY, Promoter: ETHINYL ESTRADIOL, 57-63-6","2/10 (20%), 0/11 (0%), 100%, not significant"
same,"tumour outcome (control, treated, inhibition, significance)","Carcinogen: 7,12-DIMETHYLBENZ[A]ANTHRACENE, 57-97-6, Dose [Inhibitor]: 0, 0.4% IN DIET FOR 35 WK BEGINNING POST CARCINOGEN DOSE (STUDY DURATION: 36 WK), Route [Inhibitor]: ORAL, Species: RAT, Strain/Sex: SPRAGUE-DAWLEY/FEMALE, Target Tissue: Type of Lesion: EAR DUCT: TUMOR, Dose [Carcinogen]: 50 MG/KG BW IN CORN OIL ONCE, Promoter: NONE USED","5/15 (33%), 2/15 (13%), 61%, not significant"
same,"tumour outcome (control, treated, inhibition, significance)","Carcinogen: 7,12-DIMETHYLBENZ[A]ANTHRACENE, 57-97-6, Dose [Inhibitor]: 0, 0.4% IN DIET FOR 35 WK BEGINNING POST CARCINOGEN DOSE (STUDY DURATION: 36 WK), Route [Inhibitor]: ORAL, Species: RAT, Strain/Sex: SPRAGUE-DAWLEY/FEMALE, Target Tissue: Type of Lesion: MAMMARY GLAND: ADENOCARCINOMA, Dose [Carcinogen]: 50 MG/KG BW IN CORN OIL ONCE, Promoter: NONE USED","14/15 (93%), 15/15 (100%), -8%, not significant"
same,"tumour outcome (control, treated, inhibition, significance)","Carcinogen: 7,12-DIMETHYLBENZ[A]ANTHRACENE, 57-97-6, Dose [Inhibitor]: 0, 0.4% IN DIET FOR 35 WK BEGINNING POST CARCINOGEN DOSE (STUDY DURATION: 36 WK), Route [Inhibitor]: ORAL, Species: RAT, Strain/Sex: SPRAGUE-DAWLEY/FEMALE, Target Tissue: Type of Lesion: MAMMARY GLAND: FIBROADENOMA, Dose [Carcinogen]: 50 MG/KG BW IN CORN OIL ONCE, Promoter: NONE USED","3/15 (20%), 0/15 (0%), 100%, not significant"
same,"tumour outcome (control, treated, inhibition, significance)","Carcinogen: 7,12-DIMETHYLBENZ[A]ANTHRACENE, 57-97-6, Dose [Inhibitor]: 0, 12 MG 2/WK FOR 30 WK APPLIED 20 MIN PRIOR TO EACH PROMOTER DOSE (STUDY DURATION: 32 WK), Route [Inhibitor]: DERMAL, Species: MOUSE, Strain/Sex: SENCAR/FEMALE, Target Tissue: Type of Lesion: SKIN: PAPILLOMA, Dose [Carcinogen]: 25 NMOL ONCE, Promoter: M-CHLOROPEROXYBENZOIC ACID, 937-14-4","39%, 0%, 100%, not calculated"
same,"tumour outcome (control, treated, inhibition, significance)","Carcinogen: BENZO[A]PYRENE, 50-32-8, Dose [Inhibitor]: 2 MG IN 0.1 ML ACETONE 3/WK ADMINISTERED SIMULTANEOUSLY WITH CARCINOGEN FOR DURATION OF STUDY (STUDY DURATION: 368 D), Route [Inhibitor]: DERMAL, Species: MOUSE, Strain/Sex: ICR/FEMALE, Target Tissue: Type of Lesion: SKIN: PAPILLOMA, Dose [Carcinogen]: 5 UG IN 0.1 ML ACETONE 3/WK FOR DURATION OF STUDY, Promoter: NONE USED","14/50 (28%), 36/50 (72%), -157%, not calculated"
same,"tumour outcome (control, treated, inhibition, significance)","Carcinogen: BENZO[A]PYRENE, 50-32-8, Dose [Inhibitor]: 2 MG IN 0.1 ML ACETONE 3/WK ADMINISTERED SIMULTANEOUSLY WITH CARCINOGEN FOR DURATION OF STUDY (STUDY DURATION: 368 D), Route [Inhibitor]: DERMAL, Species: MOUSE, Strain/Sex: ICR/FEMALE, Target Tissue: Type of Lesion: SKIN: SQUAMOUS CARCINOMA, Dose [Carcinogen]: 5 UG IN 0.1 ML ACETONE 3/WK FOR DURATION OF STUDY, Promoter: NONE USED","10/50 (20%), 31/50 (62%), -210%, not calculated"
same,"tumour outcome (control, treated, inhibition, significance)","Carcinogen: N-BIS(2-HYDROXYPROPYL)NITROSAMINE, 53609-64-6, Dose [Inhibitor]: 0, 0.8% IN DIET FOR 30 WK BEGINNING POST CARCINOGEN TREATMENT (STUDY DURATION: 32 WK), Route [Inhibitor]: ORAL, Species: RAT, Strain/Sex: F344/MALE, Target Tissue: Type of Lesion: BLADDER: ADENOMA, Dose [Carcinogen]: 0.1% IN DRINKING WATER FOR 2 WK, Promoter: NONE USED","5%, 0%, 100%, not calculated"
